Read-outs that look alike come from different tables or passages of the source.
What was measured:
[1] = molecular target: T1, 5-HT2A receptor (Homo sapiens, UniProt P28223); test: biochemical; format: binding; settings: 1 nM [^3H]ketanserin, HEK293 stable cell line; read-out: 5-HT2A Receptor Ki (nM) ([^3H]ketanserin)
T1 construct: host or cells: HEK293
Method in brief: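 Test compounds competed with [^3H]ketanserin for receptor binding, and affinity was derived from the radioligand displacement.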

[2] = Metabolic stability in rat liver microsomes (RLM); settings: for t1/2: RLM, 0.50 mg protein per mL; for microsomal CLint at 1 μM: both, rat, pooled rat liver microsomes, pH 7.4
[3] = molecular target: 5-HT1B receptor (Homo sapiens, UniProt P28222); test: cAMP accumulation agonist assay at 5-HT1B; format: cell-based; settings: cAMP, agonist; for EC50: read-out: 5-HT1B EC50
Sequence of 5-HT1B receptor (P28222 whole entry): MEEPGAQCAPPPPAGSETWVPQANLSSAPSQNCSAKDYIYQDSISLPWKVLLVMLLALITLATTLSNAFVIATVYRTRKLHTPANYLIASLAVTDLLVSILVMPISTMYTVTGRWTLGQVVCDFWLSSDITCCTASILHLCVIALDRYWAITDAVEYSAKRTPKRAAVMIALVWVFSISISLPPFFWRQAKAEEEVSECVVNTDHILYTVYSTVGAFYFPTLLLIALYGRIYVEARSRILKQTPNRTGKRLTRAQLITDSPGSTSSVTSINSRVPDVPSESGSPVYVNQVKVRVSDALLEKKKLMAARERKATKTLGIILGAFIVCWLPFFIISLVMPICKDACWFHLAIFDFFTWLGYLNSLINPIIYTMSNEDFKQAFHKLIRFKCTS
Method in brief: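 Agonism was measured by cAMP accumulation in stably transfected cells incubated 60 min at RT. A detection reagent was then added for 60 min at RT before reading, with an 800 nM cAMP standard in blank wells.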

[4] = test system: C57BL/6 mice; test: Head twitch response (HTR) in mice; format: in vivo, mouse; settings: SC; for ED50: 20 min, read-out: ED50 (95% CI); for ED50 / Most Efficacious Dose / Emax (95% CI): mouse HTR; for ED50 / Emax (95% CI): 20 min observation, curve fit, poor in some cases; for # HTR at Most Efficacious Dose: head twitches in 20 min
Procedure: Agonists of the 5-HT2A receptor are well known to induce this effect in rodents and the potency of this HTR is correlated with hallucinogenic potency in humans.
Animals. Adult male C57BL/6 mice, aged 6-8 weeks (body weight 20-25 g) were used in this experiment. Animals were housed under controlled temperatures and 12-hour light/dark cycles (lights on between 07:00-19:00 h), with ad libitum food and water. This study was carried out in strict accordance with the requirements of the Committee for the Purpose of Control and Supervision of Experiments on Animals (CPCSEA), India. All efforts were made to minimize suffering.
Drugs and Drug Administration. Compound 1 was synthesized as described above. It was administered subcutaneously (SC) dissolved in saline vehicle at a volume of 10 mL/kg. Five doses were tested, with n=6 animals/group. Doses were calculated on the basis of the freebase.
Procedure. Mice were administered one dose of the drug and immediately placed into a small open field for behavioral observation. Animals were observed continuously for 20 mins and the number of head twitches (HTs) were counted by an observer blind to the treatment condition.
Statistical Analysis. The data points shown are the mean±standard error of the mean (SEM). Analysis was performed using GraphPad Prism 6. Curves were fit using a non-linear gaussian distribution to calculate ED50 and Emax values.
Additional disclosed compounds were tested in the mouse head twitch response (HTR) assay according to the procedure described in Example 43. […] Lastly, compounds with much larger benzyl and phenethyl substituents on the amine nitrogen (e.g., 10 and 11) were low efficacy in this assay, consistent with their lower maximal efficacy in the arrestin functional assay (see Example 41).

[5] = molecular target: D1 receptor (Homo sapiens, UniProt P21728); test: FLIPR Ca^2+ flux agonist assay at D1; format: cell-based
Sequence of D1 receptor (P21728 whole entry): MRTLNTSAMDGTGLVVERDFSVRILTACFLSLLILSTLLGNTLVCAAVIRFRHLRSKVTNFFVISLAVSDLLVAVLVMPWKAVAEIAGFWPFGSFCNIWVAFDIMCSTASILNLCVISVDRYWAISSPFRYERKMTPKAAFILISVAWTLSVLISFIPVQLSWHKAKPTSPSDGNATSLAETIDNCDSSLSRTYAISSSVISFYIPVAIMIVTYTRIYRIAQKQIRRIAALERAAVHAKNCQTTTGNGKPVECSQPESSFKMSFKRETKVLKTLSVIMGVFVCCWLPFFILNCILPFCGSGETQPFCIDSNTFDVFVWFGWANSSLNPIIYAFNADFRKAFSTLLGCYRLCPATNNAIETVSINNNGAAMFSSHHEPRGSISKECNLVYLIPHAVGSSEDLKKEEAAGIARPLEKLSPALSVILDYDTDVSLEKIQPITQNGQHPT
Procedure: Functional Assays at Adrenergic and Dopamine Receptors. Agonist activity at Alpha1A, Alpha2A, D1, and D2 receptors was determined using a FLIPR Ca^2+ flux assay at WuXi AppTec (Hong Kong) Limited according to their standard protocols. Briefly, stably transfected cells expressing the receptor of interest were grown and plated in a 384 well plate and incubated at 37° C. and 5% CO2 overnight. A solution of 250 mM probenecid in 1 mL FLIPR assay buffer was prepared fresh. This was combined with a fluorescent dye (Fluo-4 Direct™) to make a final assay concentration of 2.5 mM. […] The fluorescent dye was then added to the assay plate along with assay buffer to a final volume of 40 μL. The cell plate was incubated for 50 min at 37° C. and 5% CO2 and placed into the FLIPR Tetra along with the compound plate. 10 μL of references and compounds were then transferred from the compound plate into the cell plate and the fluorescent signal was read.

[6] = Metabolic stability in mouse liver microsomes (MLM); format: in vitro ADME; settings: 0.50 mg protein per mL; for t1/2: MLM (CD-1), 1 μM; for microsomal CLint at 1 μM: mouse, pooled mouse liver microsomes, pH 7.4, MLM (CD-1)
Excerpt: MLM Stability Pooled MLM from CD-1 mice (BIOIVT M00501) were used.

[7] = molecular target: T2, human 5-HT2C receptor (Homo sapiens, UniProt P28335); test: cell-based; settings: Ca^2+ flux, agonist
T2 sequence (P28335 33-458): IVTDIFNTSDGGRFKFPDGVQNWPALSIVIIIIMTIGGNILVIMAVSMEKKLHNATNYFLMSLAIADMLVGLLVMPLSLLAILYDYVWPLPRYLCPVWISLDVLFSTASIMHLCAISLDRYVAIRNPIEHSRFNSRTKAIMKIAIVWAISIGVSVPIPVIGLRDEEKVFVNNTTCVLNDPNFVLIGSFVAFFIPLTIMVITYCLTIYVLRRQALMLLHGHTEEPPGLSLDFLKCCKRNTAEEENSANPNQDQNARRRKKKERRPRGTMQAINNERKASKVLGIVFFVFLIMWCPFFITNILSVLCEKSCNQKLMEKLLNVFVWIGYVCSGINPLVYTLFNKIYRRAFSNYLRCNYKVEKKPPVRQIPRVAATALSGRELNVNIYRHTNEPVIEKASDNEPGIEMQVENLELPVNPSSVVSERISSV

[8] = Ca^2+ flux, agonist, read-out: D1 EC50

T1 sequence (P28223 whole entry): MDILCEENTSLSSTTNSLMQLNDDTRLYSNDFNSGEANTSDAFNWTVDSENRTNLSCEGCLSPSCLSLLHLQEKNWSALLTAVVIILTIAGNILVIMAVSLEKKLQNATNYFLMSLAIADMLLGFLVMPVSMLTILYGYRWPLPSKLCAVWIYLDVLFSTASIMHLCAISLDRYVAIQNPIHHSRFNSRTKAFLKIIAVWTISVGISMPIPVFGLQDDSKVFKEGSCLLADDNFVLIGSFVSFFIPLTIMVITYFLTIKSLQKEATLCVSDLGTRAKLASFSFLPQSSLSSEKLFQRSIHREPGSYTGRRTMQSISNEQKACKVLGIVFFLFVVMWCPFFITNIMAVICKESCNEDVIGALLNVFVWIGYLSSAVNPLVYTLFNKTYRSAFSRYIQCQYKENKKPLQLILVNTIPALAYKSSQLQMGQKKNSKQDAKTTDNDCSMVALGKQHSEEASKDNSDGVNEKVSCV

SMILES | Ki [1] [nM] | t1/2 [2] [min] | microsomal CLint at 1 μM [2] [µL/min/mg] | EC50 [3] [nM] | ED50 [4] [mg/kg] | Most Efficacious Dose [4] [mg/kg] | Emax (95% CI) [4] | induction of head twitch response (in words) ([4]; mouse) | EC50 [5] [nM] | t1/2 [6] [min] | microsomal CLint at 1 μM [6] [µL/min/mg] | EC50 [7] [nM] | # HTR at Most Efficacious Dose ([4]; mouse) | 5-HT1B % Act @ Max Dose [3] [%] | efficacy in HTR assay (in words) ([4]; mouse) | EC50 [5, 8] [nM]
CCCN1C[C@H](C(=O)N(CC)CC)C=C2c3cccc4[nH]cc(c34)C[C@H]21 [Compound 1, (6aR,9R)—N,N-diethyl-7-propyl-4,6,6a,7,8,9-hexahydroindolo[4,3-fg]quinoline-9-carboxamide] | 1.06 | 16.2 | 85.4 | 3.82 | 0.0946 | 1 | 21.63 (18.45-25.78) | robust and dose-dependent HTR | 4.64 | 2.3 | 615 | 11.9 |  |  |  | 
CCN(CC)C(=O)[C@@H]1C=C2c3cccc4[nH]cc(c34)C[C@H]2N(CCCF)C1 [Compound 2, (6aR,9R)—N,N-diethyl-7-(3-fluoropropyl)-4,6,6a,7,8,9-hexahydroindolo[4,3-fg]quinoline-9-carboxamide] | 2.79 | 11.972 | 116 | 193 | 0.0703 | 0.32 | 20.47 (18.43-22.6) |  | 86.4 | 2.666 | 520 | 4.35 |  |  |  | 
CCCN1C[C@H](C(=O)N[C@H](C)CC)C=C2c3cccc4[nH]cc(c34)C[C@H]21 [Compound 3, (6aR,9R)—N—((R)-sec-butyl)-7-propyl-4,6,6a,7,8,9-hexahydroindolo[4,3-fg]quinoline-9-carboxamide] | 1.36 | 4.4 | 318 | 68.8 | 0.0401 | 0.32 | 25.56 (22.08-29.36) |  | 47.9 | 1.6 | 894 | 0.822 | 27.0 |  |  | 
CCCN1C[C@H](C(=O)N2[C@@H](C)C[C@@H]2C)C=C2c3cccc4[nH]cc(c34)C[C@H]21 [Compound 4, ((2S,4S)-2,4-dimethylazetidin-1-yl)((6aR,9R)-7-propyl-4,6,6a,7,8,9-hexahydroindolo[4,3-fg]quinolin-9-yl)methanone] | 3.07 | 12.8 | 108 | 97.6 | 0.376 | 0.1 | 4.034 (2.965-5.217) |  | 81.8 | 0.8 | 1670 | 5.6 |  | 96 | less efficacious | 
CCCN1C[C@H](C(=O)NC(CC)CC)C=C2c3cccc4[nH]cc(c34)C[C@H]21 [Compound 6, (6aR,9R)—N-(pentan-3-yl)-7-propyl-4,6,6a,7,8,9-hexahydroindolo[4,3-fg]quinoline-9-carboxamide] | 1.16 | 1.655 | 837 | 201 | 0.139 | 1 | 23.06 (19.86-27.47) |  | 18.1 | 0.6 | 2420 | 6.18 |  |  |  | 
CCN(CC)C(=O)[C@@H]1C=C2c3cccc4[nH]cc(c34)C[C@H]2N(Cc2ccccc2OC)C1 [Compound 10, (6aR,9R)—N,N-diethyl-7-(2-methoxybenzyl)-4,6,6a,7,8,9-hexahydroindolo[4,3-fg]quinoline-9-carboxamide] | 32.7 | 3.4 | 407 | 3190 | 1.26 | 3.2 | 7.749 (4.126-???) |  |  | 1 | 1400 | > 10000 | 6.5 |  | low efficacy | 2780
CCN(CC)C(=O)[C@@H]1C=C2c3cccc4[nH]cc(c34)C[C@H]2N(CCc2ccccc2OC)C1 [Compound 11, (6aR,9R)—N,N-diethyl-7-(2-methoxyphenethyl)-4,6,6a,7,8,9-hexahydroindolo[4,3-fg]quinoline-9-carboxamide] | 0.69 | 1.159 | 1200 | 448 | 2.21 | 3.2 | 19.79 (12.66-80.7) |  |  | 0.917 | 1510 | 74.5 | 12.0 |  | low efficacy | 1590

Source: patent publication US20230116703A1, “NOVEL ERGOLINES AND METHODS OF TREATING MOOD DISORDERS” (priority 2021, published 2023)
